Experimental data published in patent US9938543B2, “Methods, reagents and cells for biosynthesizing glutarate methyl ester” (priority 2014, dated 2018).

How the values were obtained:
Assay type in all cases: biochemical
[1] = target: T1, carboxylate reductase of SEQ ID NO: 2 (Mycobacterium marinum) (Mycobacterium marinum, UniProt B2HN69); test: Carboxylate reductase enzyme activity assay, glutarate methyl ester as substrate (NADPH consumption at 340 nm); settings: 2 mM glutarate methyl ester, 1 mM NADPH, 1 mM ATP, pH 7.5, room temperature 20 min; enhanced by gene product of sfp; against empty vector control
T1 construct: His-tag (N); made in house; host or cells: E. coli BL21[DE3], pET Duet vector
T1 sequence (B2HN69 whole entry): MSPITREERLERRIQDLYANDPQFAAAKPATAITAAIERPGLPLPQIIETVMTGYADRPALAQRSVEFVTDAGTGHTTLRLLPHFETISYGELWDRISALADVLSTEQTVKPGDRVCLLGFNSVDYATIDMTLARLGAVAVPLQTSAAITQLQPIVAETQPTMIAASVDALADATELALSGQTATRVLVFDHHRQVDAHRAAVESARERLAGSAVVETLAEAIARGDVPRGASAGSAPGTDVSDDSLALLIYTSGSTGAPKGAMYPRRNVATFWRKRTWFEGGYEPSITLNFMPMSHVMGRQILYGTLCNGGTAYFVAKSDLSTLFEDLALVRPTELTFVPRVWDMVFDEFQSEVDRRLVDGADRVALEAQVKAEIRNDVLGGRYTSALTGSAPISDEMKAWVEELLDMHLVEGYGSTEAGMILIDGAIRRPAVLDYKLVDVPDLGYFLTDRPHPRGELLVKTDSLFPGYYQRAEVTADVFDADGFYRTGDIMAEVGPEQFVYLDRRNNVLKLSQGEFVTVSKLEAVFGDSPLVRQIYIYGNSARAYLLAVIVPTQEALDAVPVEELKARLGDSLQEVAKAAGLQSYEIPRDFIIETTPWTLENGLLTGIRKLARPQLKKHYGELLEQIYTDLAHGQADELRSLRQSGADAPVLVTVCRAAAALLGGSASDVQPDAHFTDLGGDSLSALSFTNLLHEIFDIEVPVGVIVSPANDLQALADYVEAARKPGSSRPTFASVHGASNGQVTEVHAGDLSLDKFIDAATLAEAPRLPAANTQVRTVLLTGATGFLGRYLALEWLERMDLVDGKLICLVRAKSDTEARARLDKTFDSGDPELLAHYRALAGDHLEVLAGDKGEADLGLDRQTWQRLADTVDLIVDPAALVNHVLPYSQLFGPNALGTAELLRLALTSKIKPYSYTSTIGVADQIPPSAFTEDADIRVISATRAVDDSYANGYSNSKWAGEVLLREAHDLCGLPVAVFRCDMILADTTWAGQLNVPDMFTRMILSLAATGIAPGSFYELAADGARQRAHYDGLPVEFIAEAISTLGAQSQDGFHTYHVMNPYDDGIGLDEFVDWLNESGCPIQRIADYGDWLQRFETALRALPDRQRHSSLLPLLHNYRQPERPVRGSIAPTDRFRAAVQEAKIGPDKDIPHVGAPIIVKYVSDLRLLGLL
Description: (§1) A nucleotide sequence encoding a His-tag was added to the genes from Mycobacterium marinum, Mycobacterium smegmatis, Segniliparus rugosus, Mycobacterium massiliense, and Segniliparus rotundus that encode the carboxylate reductases of SEQ ID NOs: 2-4, 6 and 7, respectively (GenBank Accession Nos. ACC40567.1, ABK71854.1, EFV11917.1, EIV11143.1, and ADG98140.1, respectively) (see FIG. 8) such that N-terminal HIS tagged carboxylate reductases could be produced. Each of the modified genes was cloned into a pET Duet expression vector alongside a sfp gene encoding a His-tagged phosphopantetheine transferase from Bacillus subtilis, both under control of the T7 promoter. Each expression vector was transformed into a BL21[DE3] E. coli host along with the expression vectors from Example 2. Each resulting recombinant E. coli strain was cultivated at 37° C. in a 250 mL shake flask culture containing 50 mL LB media and antibiotic selection pressure, with shaking at 230 rpm. Each culture was induced overnight at 37° C. using an auto-induction media.
(§2) The pellet from each induced shake flask culture was harvested via centrifugation. Each pellet was resuspended and lysed via sonication. The cell debris was separated from the supernatant via centrifugation. The carboxylate reductases and phosphopantetheine transferase were purified from the supernatant using Ni-affinity chromatography, diluted 10-fold into 50 mM HEPES buffer (pH=7.5) and concentrated via ultrafiltration.
(§3) The enzyme activity assay was performed in triplicate in a buffer composed of a final concentration of 50 mM HEPES buffer (pH=7.5), 2 mM glutarate methyl ester, 10 mM MgCl2, 1 mM ATP and 1 mM NADPH. The enzyme activity assay reaction was initiated by adding purified carboxylate reductase and phosphopantetheine transferase or the empty vector control to the assay buffer containing the glutarate methyl ester and then incubated at room temperature for 20 min. The consumption of NADPH was monitored by absorbance at 340 nm.

[2] = system: carboxylate reductase of SEQ ID NO: 6 (Mycobacterium massiliense); test: as above; settings: 2 mM glutarate methyl ester, 1 mM NADPH, 1 mM ATP, pH 7.5, room temperature 20 min; enhanced by gene product of sfp; against empty vector control
Description: as §1, §2, §3

[3] = system: carboxylate reductase of SEQ ID NO: 3 (Mycobacterium smegmatis); test: as above; settings: 2 mM glutarate methyl ester, 1 mM NADPH, 1 mM ATP, pH 7.5, room temperature 20 min; enhanced by gene product of sfp; against empty vector control
Description: as §1, §2, §3

[4] = system: carboxylate reductase of SEQ ID NO: 7 (Segniliparus rotundus); test: as above; settings: 2 mM glutarate methyl ester, 1 mM NADPH, 1 mM ATP, pH 7.5, room temperature 20 min; enhanced by gene product of sfp; against empty vector control
Description: as §1, §2, §3

[5] = target: T2, pimeloyl-[acp] methyl ester methylesterase of SEQ ID NO: 1 (Escherichia coli, UniProt P13001); test: Pimeloyl-[acp] methyl ester methylesterase enzyme activity assay, glutaryl-CoA methyl ester to glutaryl-CoA (LC-MS); settings: 5 mM glutaryl-CoA methyl ester, 10 μM enzyme, 25 mM Tris.HCl pH 7.0, 30° C., 1 h
T2 construct: His-tag (C); made in house; host or cells: E. coli BL21[DE3], pET28b+ vector
T2 sequence (P13001 whole entry): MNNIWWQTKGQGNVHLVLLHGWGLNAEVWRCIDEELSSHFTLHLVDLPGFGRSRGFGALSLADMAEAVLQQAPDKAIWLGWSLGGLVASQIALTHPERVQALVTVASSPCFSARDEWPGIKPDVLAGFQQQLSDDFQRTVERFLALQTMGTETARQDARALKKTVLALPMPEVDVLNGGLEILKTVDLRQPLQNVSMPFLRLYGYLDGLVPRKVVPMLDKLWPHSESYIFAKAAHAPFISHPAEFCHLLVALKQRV
Description: A sequence encoding an C-terminal His-tag was added to the gene from Escherichia coli encoding the pimeloyl-[acp] methyl ester methylesterase of SEQ ID NO: 1 (see FIG. 8) such that C-terminal HIS tagged pimeloyl-[acp] methyl ester methylesterase could be produced. The resulting modified gene was cloned into a pET28b+ expression vector under control of the T7 promoter and the expression vector was transformed into a BL21[DE3] E. coli host. The resulting recombinant E. coli strain was cultivated at 37° C. in a 500 mL shake flask culture containing 100 mL LB media and antibiotic selection pressure, with shaking at 230 rpm. Each culture was induced overnight at 18° C. using 0.3 mM IPTG.
The pellet from each induced shake flask culture was harvested via centrifugation. Each pellet was resuspended and lysed via sonication. The cell debris was separated from the supernatant via centrifugation. The pimeloyl-[acp] methyl ester methylesterase was purified from the supernatant using Ni-affinity chromatography, buffer exchanged and concentrated into 20 mM HEPES buffer (pH=7.5) via ultrafiltration and stored at 4° C.
Enzyme activity assays converting glutaryl-CoA methyl ester to glutaryl-CoA were performed in triplicate in a buffer composed of a final concentration of 25 mM Tris.HCl buffer (pH=7.0) and 5 [mM] glutaryl-CoA methyl ester. […] The formation of glutaryl-CoA was quantified via LC-MS.

Structure (SMILES)	acceptance as substrate, forming glutarate semialdehyde methyl ester [1]	acceptance as substrate, forming glutarate semialdehyde methyl ester [2]	acceptance as substrate, forming glutarate semialdehyde methyl ester [3]	acceptance as substrate, forming glutarate semialdehyde methyl ester [4]	acceptance as substrate, forming glutaryl-CoA [5]
COC(=O)CCCC(=O)O [glutarate methyl ester]	accepted glutarate methyl ester as substrate	accepted glutarate methyl ester as substrate	accepted glutarate methyl ester as substrate	accepted glutarate methyl ester as substrate	–
COC(=O)CCCC(=O)SCCNC(=O)CCNC(=O)C(O)C(C)(C)COP(=O)(O)OP(=O)(O)OCC1OC(n2cnc3c(N)ncnc32)C(O)C1OP(=O)(O)O (centres unmarked) [glutaryl-CoA methyl ester]	–	–	–	–	accepted glutaryl-CoA methyl ester as substrate
